Counter-ions that a name gives are not always drawn.
Columns and labels:
[1] = system: Tel23; assay: CD melting experiments, Tel23 GQ; format: binding, human; conditions: 2 molar equiv compound, T1/2 of DNA alone 53.5 °C
From the text: (§1) The 21 synthesised MTDLs were screened for their ability to bind to and stabilise DNA GQ-forming sequences, compared to berberine, by CD experiments. Indeed, circular dichroism has shown to be outstandingly useful and informative for noncanonical nucleic acid secondary structures. For this purpose, a G-rich 23-nucleotide truncation (23-nt) of the human telomeric sequence (Tel23) and two G-rich motifs from the promoter regions of c-KIT (c-Kit1) and c-MYC (c-Myc) oncogenes were employed. First, the overall topology adopted by each DNA sequence in K^+-containing buffer was verified by CD spectra. […] GQ conformation (Figure S1, Supporting Information). On the other hand, c-Kit1 and c-Myc sequences adopted a parallel GQ conformation, showing a distinctive positive band at around 260 nm and a negative one at ∼240 nm in their CD spectra (Figures S2 and S3, Supporting Information).
(§2) Afterwards, the GQ-stabilising properties of the molecules were assessed by CD melting experiments, measuring the differences in the apparent melting temperatures of the DNA in the presence and absence of compounds (ΔT1/2) (Figures S4–S6 and Table S2, Supporting Information). […] This could be explained by considering the higher accessibility of the external G-tetrads in the case of parallel GQs compared to the hybrid one[52], which would allow the additional CAI moiety of conjugated compounds to be better accommodated in the binding site. […] . […] .

[2] = system: HeLa cells; assay: MTT assay, HeLa cells in normoxia; format: cell-based; conditions: 48 h
From the text: Combining the results on carbonic anhydrase inhibition and GQ thermal stabilisation, we selected the sulphonamides S-2,0, S-4,0, S-5,0 and the coumarins C-3,2, C-4,2, C-5,2 as the most promising MTDLs to be further investigated, since able to both efficiently suppress the activity of the hCAs IX/XII and stabilise GQ structures, in vitro. Moreover, given that crystals suitable for X-ray diffraction analyses had been successfully obtained for the human telomeric DNA GQ in complex with S-3,2, we also included such sulphonamide derivative in the subsequent studies. Thus, we assessed the cytotoxicity of the selected MTDLs on CA IX-positive HeLa cells, using the MTT assay.
HeLa cells were grown in Dulbecco’s Modified Eagle’s Medium supplemented with 10% FBS, 100 U/mL penicillin, and 100 μg/mL streptomycin, at 37 °C, in a 5% CO2/95% air atmosphere. Cells were sub-cultured at 90% confluence, in the split ratio 1:8, every 3–5 days. The MTDLs used in this study, as well as the CAIs S and C, were dissolved in DMSO at 40 mM (for the sulphonamides) or 10 mM (for the coumarins) concentration. As for berberine, a 50 mM stock solution in DMSO was prepared. Each tested compound was diluted in cell culture medium to the required concentration, immediately prior to use. As regards the experiments under hypoxic conditions, an 80 mM stock solution of CoCl2 was prepared in sterile distilled water and further diluted in medium to obtain the final desired concentrations.
For the MTT experiments in the presence of normal oxygen levels, HeLa cells were seeded in 96-well plates at a density of 15,000 cells per well (culture medium volume – 100 μL/well) and incubated at 37 °C, for 24 h. The medium was then removed, and HeLa were incubated, for 48 h, with fresh medium containing increasing concentrations of MTDLs, single-target-directed agents (berberine, S, and C) or vehicle (0.5% DMSO). The MTDL C-4,2 was also tested for 12 h. As for the co-treatments, cells were co-treated for 12 h with equimolar concentrations of berberine and C. As regards the MTT experiments under hypoxic conditions, HeLa cells were seeded in 96-well plates (8,000 cells per well) and incubated overnight, pre-treated with 50 μM cobalt (II) chloride hexahydrate (CoCl2) and then, for the following 12 h, either exposed to increasing concentrations of C-4,2 or vehicle (0.5% DMSO), or co-treated with equimolar concentrations of berberine and C. Each condition was assayed in triplicate. At the end of the treatments, 10 µL of MTT reagent were added to each well, at a final concentration of 0.5 mg/mL, and the plates were incubated at 37 °C for 4 h. To dissolve the resulting purple formazan crystals, 100 μL of the solubilisation solution were added into each well and the plates were allowed to stand overnight in the incubator (37 °C, 5% CO2/95% air). Finally, the optical density of the samples (at 570 nm) was measured on an ELx800 Absorbance Microplate Reader (BioTek Instruments, Inc., Winooski, VT, USA). The percentage (%) of cell survival for each condition was calculated by using the following equation: % cell survival=OD− OD0/ODCONTROL− OD0×100 where OD is the optical density of the sample, OD0 is the optical density of the background signal, and ODCONTROL is the optical density of the control sample (cells treated with vehicle, 0.5% DMSO). The concentration able to reduce by 50% the cellular viability (IC50) was calculated, for each investigated compound, using Prism 8.0.2 (GraphPad, San Diego, CA, USA) and plotting the percentage of cell survival versus the compound concentration (µM).

[3] = system: Hairpin; assay: CD melting experiments, hairpin DNA duplex; conditions: 2 molar equiv compound, T1/2 of DNA alone 66.0 °C
Procedure: To evaluate the possible binding and stabilisation of double-stranded DNA, a 27-nt long hairpin-forming sequence (Hairpin) was employed.
In particular, the following DNA sequences were synthesised and employed for the experiments: d([sequence]) (c-Kit1), d([sequence]) (c-Myc), d([sequence]) (Tel23), and d([sequence]) (Hairpin). Oligonucleotides were dissolved in the proper buffer and their concentration was measured by UV absorption at 90 °C, as previously reported[80]^,[81]. To achieve the correct folding of the sequences, the DNA solutions were heated in a water bath at 90 °C for 5 min, and then allowed to cool slowly to room temperature overnight. Then, DNA samples were stored at 4 °C for 24 h, before data acquisition.
The samples were prepared by dissolving the oligonucleotides in 5 mM KH2PO4/K2HPO4 buffer (pH 7.0) containing 20 mM KCl (or LiCl in the case of c-Myc because of its high thermal stability). DNA concentrations of 20 µM for GQs and 30 µM for Hairpin were used. For each compound, a 10 mM stock solution in 100% DMSO was prepared. […] CD spectra were acquired at 20 and 100 °C, in the 230–320 nm wavelength range, averaged over three scans and subtracted of the buffer baseline. The scanning speed was set to 100 nm/min, with a 0.5 s response time, and 1 nm bandwidth. CD melting experiments were carried out in the 20–100 °C temperature range, with 1 °C/min heating rate, by following changes in the CD signal at the wavelengths of the maximum CD intensity (i.e. 263 nm for c-Kit1 and c-Myc, and 290 nm for Tel23). As for Hairpin, CD melting curves were recorded by following the changes in the CD signal at 252 nm (the wavelength of the minimum CD intensity). CD melting curves were normalised between 0 and 1. […] The ΔT1/2 values correspond to the difference in the T1/2 values of the nucleic acid structures in the presence and absence of the compounds. All experiments were performed in duplicate, and the reported values are the mean of the two measurements.

[4] = system: c-Myc; assay: CD melting experiments, c-Myc GQ; format: binding; conditions: 1 molar equiv compound, T1/2 of DNA alone 70.0 °C
From the text: as §1, §2

[5] = system: c-Kit1; assay: CD melting experiments, c-Kit1 GQ; format: binding; conditions: 2 molar equiv compound, T1/2 of DNA alone 55.0 °C
From the text: as §1, §2

melting point	Compound	other results
212 to 215 °C	COc1ccc2cc3[n+](cc2c1OCCn1cc(-c2ccc(S(N)(=O)=O)cc2)nn1)CCc1cc2c(cc1-3)OCO2 (as salt: phosphate) [Compound 26, 10-Methoxy-9–(2-(4–(4-sulfamoylphenyl)-1H-1,2,3-triazol-1-yl)ethoxy)-5,6-dihydro-[1,3]dioxolo[4,5-g]isoquinolino[3,2-a]isoquinolin-7-ium hexafluorophosphate]	–
183 to 185 °C	COc1ccc2cc3[n+](cc2c1OCCn1cc(COc2ccc(S(N)(=O)=O)cc2)nn1)CCc1cc2c(cc1-3)OCO2 (as salt: phosphate) [Compound 27, 10-Methoxy-9–(2-(4-((4-sulfamoylphenoxy)methyl)-1H-1,2,3-triazol-1-yl)ethoxy)-5,6-dihydro-[1,3]dioxolo[4,5-g]isoquinolino[3,2-a]isoquinolin-7-ium hexafluorophosphate]	–
205 to 208 °C	COc1ccc2cc3[n+](cc2c1OCCCn1cc(-c2ccc(S(N)(=O)=O)cc2)nn1)CCc1cc2c(cc1-3)OCO2 (as salt: phosphate) [Compound 28, 10-Methoxy-9–(3-(4–(4-sulfamoylphenyl)-1H-1,2,3-triazol-1-yl)propoxy)-5,6-dihydro-[1,3]dioxolo[4,5-g]isoquinolino[3,2-a]isoquinolin-7-ium hexafluorophosphate]	–
120 to 122 °C	COc1ccc2cc3[n+](cc2c1OCCCn1cc(COc2ccc(S(N)(=O)=O)cc2)nn1)CCc1cc2c(cc1-3)OCO2 (as salt: phosphate) [Compound 29, 10-Methoxy-9–(3-(4-((4-sulfamoylphenoxy)methyl)-1H-1,2,3-triazol-1-yl)propoxy)-5,6-dihydro-[1,3]dioxolo[4,5-g]isoquinolino[3,2-a]isoquinolin-7-ium hexafluorophosphate]	–
200 to 202 °C	COc1ccc2cc3[n+](cc2c1OCCCCCn1cc(-c2ccc(S(N)(=O)=O)cc2)nn1)CCc1cc2c(cc1-3)OCO2 (as salt: phosphate) [Compound 32, 10-Methoxy-9-((5–(4-(4-sulfamoylphenyl)-1H-1,2,3-triazol-1-yl)pentyl)oxy)-5,6-dihydro-[1,3]dioxolo[4,5-g]isoquinolino[3,2-a]isoquinolin-7-ium hexafluorophosphate]	–
168 to 171 °C	COc1ccc2cc3[n+](cc2c1OCCCCCn1cc(COc2ccc(S(N)(=O)=O)cc2)nn1)CCc1cc2c(cc1-3)OCO2 (as salt: phosphate) [Compound 33, 10-Methoxy-9-((5–(4-((4-sulfamoylphenoxy)methyl)-1H-1,2,3-triazol-1-yl)pentyl)oxy)-5,6-dihydro-[1,3]dioxolo[4,5-g]isoquinolino[3,2-a]isoquinolin-7-ium hexafluorophosphate]	–
140 °C	COc1ccc2cc3[n+](cc2c1OCCCn1cc(COc2ccc4ccc(=O)oc4c2)nn1)CCc1cc2c(cc1-3)OCO2 (as salt: phosphate) [Compound 34, 10-Methoxy-9–(3-(4-(((2-oxo-2H-chromen-7-yl)oxy)methyl)-1H-1,2,3-triazol-1-yl)propoxy)-5,6-dihydro-[1,3]dioxolo[4,5-g]isoquinolino[3,2-a]isoquinolin-7-ium hexafluorophosphate]	–
130 to 131 °C	COc1ccc2cc3[n+](cc2c1OCCCn1cc(CCOc2ccc4ccc(=O)oc4c2)nn1)CCc1cc2c(cc1-3)OCO2 (as salt: phosphate) [Compound 35, 10-Methoxy-9–(3-(4–(2-((2-oxo-2H-chromen-7-yl)oxy)ethyl)-1H-1,2,3-triazol-1-yl)propoxy)-5,6-dihydro-[1,3]dioxolo[4,5-g]isoquinolino[3,2-a]isoquinolin-7-ium hexafluorophosphate]	–
195 to 198 °C	COc1ccc2cc3[n+](cc2c1OCc1cn(-c2cccc(S(N)(=O)=O)c2)nn1)CCc1cc2c(cc1-3)OCO2 (as salt: phosphate) [Compound 40, 10-Methoxy-9-((1–(3-sulfamoylphenyl)-1H-1,2,3-triazol-4-yl)methoxy)-5,6-dihydro-[1,3]dioxolo[4,5-g]isoquinolino[3,2-a]isoquinolin-7-ium hexafluorophosphate]	–
117 to 118 °C	COc1ccc2cc3[n+](cc2c1OCc1cn(CCCOc2ccc4ccc(=O)oc4c2)nn1)CCc1cc2c(cc1-3)OCO2 (as salt: phosphate) [Compound 42, 10-Methoxy-9-((1–(3-((2-oxo-2H-chromen-7-yl)oxy)propyl)-1H-1,2,3-triazol-4-yl)methoxy)-5,6-dihydro-[1,3]dioxolo[4,5-g]isoquinolino[3,2-a]isoquinolin-7-ium hexafluorophosphate]	–
124 to 125 °C	COc1ccc2cc3[n+](cc2c1OCc1cn(CCCCOc2ccc4ccc(=O)oc4c2)nn1)CCc1cc2c(cc1-3)OCO2 (as salt: phosphate) [Compound 43, 10-Methoxy-9-((1–(4-((2-oxo-2H-chromen-7-yl)oxy)butyl)-1H-1,2,3-triazol-4-yl)methoxy)-5,6-dihydro-[1,3]dioxolo[4,5-g]isoquinolino[3,2-a]isoquinolin-7-ium hexafluorophosphate]	–
–	COc1ccc2cc3[n+](cc2c1OC)CCc1cc2c(cc1-3)OCO2 [Berberine, berberine, reference compound]	ΔT1/2 Tel23 [1]: 9.5 °C; effect on HeLa cell viability (in words) ([2]; increasing concentrations): good dose-dependent cytotoxic effect; IC50 ([2]; Homo sapiens, normoxia, read-out: IC50 (50% of cell viability reduction), MTT assay): 75 µM; ΔT1/2 Hairpin [3]: +0.2 °C; ΔT1/2 c-Myc [4]: 12.0 °C; ΔT1/2 c-Kit1 [5]: 13.0 °C

Compound	melting point	other results
COc1ccc2cc3[n+](cc2c1OCCCCn1cc(COc2ccc(S(N)(=O)=O)cc2)nn1)CCc1cc2c(cc1-3)OCO2 (as salt: phosphate) [Compound 31, 10-Methoxy-9–(4-(4-((4-sulfamoylphenoxy)methyl)-1H-1,2,3-triazol-1-yl)butoxy)-5,6-dihydro-[1,3]dioxolo[4,5-g]isoquinolino[3,2-a]isoquinolin-7-ium hexafluorophosphate]	165 to 168 °C	–
COc1ccc2cc3[n+](cc2c1OCCCCn1cc(CCOc2ccc4ccc(=O)oc4c2)nn1)CCc1cc2c(cc1-3)OCO2 (as salt: phosphate) [Compound 38, 10-Methoxy-9–(4-(4–(2-((2-oxo-2H-chromen-7-yl)oxy)ethyl)-1H-1,2,3-triazol-1-yl)butoxy)-5,6-dihydro-[1,3]dioxolo[4,5-g]isoquinolino[3,2-a]isoquinolin-7-ium hexafluorophosphate]	185 to 186 °C	–

— paper PMC11195807, “Development of a multi-targeted chemotherapeutic approach based on G-quadruplex stabilisation and carbonic anhydrase inhibition” (Journal of Enzyme Inhibition and Medicinal Chemistry, 2024)
